# Assay results: US20050090522A1 (priority 2001, published 2005)
# Tested on: HIV-1
# Test: HIV-1 single-round infectious luciferase reporter virus (pseudotype) assay in HeLa CD4 CCR5 cells
# Assay type: cell-based
# Conditions: Human immunodeficiency virus 1, HeLa-CD4/CCR5, read-out: EC50 Group from TABLE 1, HeLa CD4 CCR5 cells, single-round infectious luciferase reporter virus
# In short: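 HeLa CD4 CCR5 cells (5×10^4/well, DMEM + 10% FBS) were treated with compound (final <10 μM) and infected with single-round luciferase reporter virus made in 293 cells, at MOI ~0.01. Luciferase was read 72 h post infection. EC50 came from 10-concentration percent-inhibition curves fitted to a four-parameter logistic model.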
row,Compound,EC50 [nM]
1,"COc1cnc(-n2ccc(C(C)(C)O)n2)c2[nH]cc(C(=O)C(=O)N3CCN(C(=O)c4ccccc4)CC3)c12 [Example 247, 1-benzoyl-4-[(4-methoxy-7-(3-(1-hydroxyl-1-methylethyl)-pyrazol-1-yl)-6-azaindol-3-yl)-oxoacetyl]piperazine]",< 1000
2,"COc1cnc(-n2ccc(CCO)n2)c2[nH]cc(C(=O)C(=O)N3CCN(C(=O)c4ccccc4)CC3)c12 [Example 248, 1-benzoyl-4-[(4-methoxy-7-(3-(3-hydroxylethyl)-pyrazol-1-yl)-6-azaindol-3-yl)-oxoacetyl]piperazine]",< 1000
3,"COc1cnc(-n2ccc(C(C)C)n2)c2[nH]cc(C(=O)C(=O)N3CCN(C(=O)c4ccccc4)CC3)c12 [Example 249, 1-benzoyl-4-[(4-methoxy-7-(3-iso-propyl-pyrazol-1-yl)-6-azaindol-3-yl)-oxoacetyl]piperazine]",< 1000
4,"CCCCCc1ccn(-c2ncc(OC)c3c(C(=O)C(=O)N4CCN(C(=O)c5ccccc5)CC4)c[nH]c23)n1 [Example 250, 1-benzoyl-4-[(4-methoxy-7-(3-n-pentyl-pyrazol-1-yl)-6-azaindol-3-yl)-oxoacetyl]piperazine]",< 1000
5,"COc1cnc(-n2nccc2N)c2[nH]cc(C(=O)C(=O)N3CCN(C(=O)c4ccccc4)CC3)c12 [Example 252, 1-benzoyl-4-[(4-methoxy-7-(5-amino-pyrazol-1-yl)-6-azaindol-3-yl)-oxoacetyl]piperazine]",< 1000
6,"COc1cnc(-n2ccc(-c3ccc(C)nc3)n2)c2[nH]cc(C(=O)C(=O)N3CCN(C(=O)c4ccccc4)CC3)c12 [Example 264, 1-benzoyl-4-[(4-methoxy-7-(3-(2-methylpyridin-5-yl)pyrazol-1-yl)-6-azaindol-3-yl)-oxoacetyl]piperazine]",< 1000
7,"COc1cnc(-n2ccc(CC(C)O)n2)c2[nH]cc(C(=O)C(=O)N3CCN(C(=O)c4ccccc4)CC3)c12 (stereo not shown) [Example 277, 1-benzoyl-4-[(4-methoxy-7-(3-(2-hydroxylpropyl)-pyrazol-1-yl)-6-azaindol-3-yl)-oxoacetyl]piperazine]",< 1000
8,"COc1cnc(-n2ccc(C3=CCCCC3)n2)c2[nH]cc(C(=O)C(=O)N3CCN(C(=O)c4ccccc4)CC3)c12 [Example 278, 1-benzoyl-4-[(4-methoxy-7-(3-(cyclohexen-1-yl)-pyrazol-1-yl)-6-azaindol-3-yl)-oxoacetyl]piperazine]",< 1000
9,"COc1cnc(-n2ccc(CCCC#N)n2)c2[nH]cc(C(=O)C(=O)N3CCN(C(=O)c4ccccc4)CC3)c12 [Example 279, 1-benzoyl-4-[(4-methoxy-7-(3-(3-cyano-propan-1-yl)-pyrazol-1-yl)-6-azaindol-3-yl)-oxoacetyl]piperazine]",< 1000
10,"COc1cnc(-n2ccc(CN3CCS(=O)(=O)CC3)n2)c2[nH]cc(C(=O)C(=O)N3CCN(C(=O)c4ccccc4)CC3)c12 [Example 280, 1-benzoyl-4-[(4-methoxy-7-(3-(1,1-dioxo-thiomorpholin-4-yl)methyl-pyrazol-1-yl)-6-azaindol-3-yl)-oxoacetyl]piperazine]",< 1000
11,"COc1cnc(-n2ccc(CC(C)C)n2)c2[nH]cc(C(=O)C(=O)N3CCN(C(=O)c4ccccc4)CC3)c12 [Example 281, 1-benzoyl-4-[(4-methoxy-7-(3-isobutyl-pyrazol-1-yl)-6-azaindol-3-yl)-oxoacetyl]piperazine]",< 1000
12,"COc1cnc(-n2ccc(C3(O)CCCC3)n2)c2[nH]cc(C(=O)C(=O)N3CCN(C(=O)c4ccccc4)CC3)c12 [Example 282, 1-benzoyl-4-[(4-methoxy-7-(3-(1-hydroxy-cyclopentyl)-pyrazol-1-yl)-6-azaindol-3-yl)-oxoacetyl]piperazine]",< 1000
13,"CNCc1ccn(-c2ncc(OC)c3c(C(=O)C(=O)N4CCN(C(=O)c5ccccc5)CC4)c[nH]c23)n1 [Example 283, 1-benzoyl-4-[(4-methoxy-7-(3-methylaminomethyl-pyrazol-1-yl)-6-azaindol-3-yl)-oxoacetyl]piperazine]",< 1000
14,"COc1cnc(-n2ccc(C(O)C(C)C)n2)c2[nH]cc(C(=O)C(=O)N3CCN(C(=O)c4ccccc4)CC3)c12 (stereo not shown) [Example 284, 1-benzoyl-4-[(4-methoxy-7-(3-(1-hydroxy-2-methyl-propyl)-pyrazol-1-yl)-6-azaindol-3-yl)-oxoacetyl]piperazine]",< 1000
15,"CCOC(=O)c1ccc(OCc2ccn(-c3ncc(OC)c4c(C(=O)C(=O)N5CCN(C(=O)c6ccccc6)CC5)c[nH]c34)n2)cc1 [Example 285, 1-benzoyl-4-[(4-methoxy-7-(3-(4-ethoxycarbonyl-phenyl)oxymethyl-pyrazol-1-yl)-6-azaindol-3-yl)-oxoacetyl]piperazine]",< 1000
16,"COc1cnc(-n2ccc(S(=O)(=O)c3ccc(C)cc3)n2)c2[nH]cc(C(=O)C(=O)N3CCN(C(=O)c4ccccc4)CC3)c12 [Example 286, 1-benzoyl-4-[(4-methoxy-7-(3-(toluene-4-sulfonyl)-pyrazol-1-yl)-6-azaindol-3-yl)-oxoacetyl]piperazine]",< 1000
17,"COc1cnc(-n2ccc(-c3cccc(C(F)(F)F)c3)n2)c2[nH]cc(C(=O)C(=O)N3CCN(C(=O)c4ccccc4)CC3)c12 [Example 287, 1-benzoyl-4-[(4-methoxy-7-(3-(3-trifluoromethyl-phenyl)-pyrazol-1-yl)-6-azaindol-3-yl)-oxoacetyl]piperazine]",< 1000

# Same assay, conditions: Human immunodeficiency virus 1, HeLa-CD4/CCR5, read-out: EC50 Group from Table 1, Table 2-1; HeLa CD4 CCR5 cells, single-round luciferase reporter virus
row,Compound,EC50 [nM]
1,"COc1cnc(-n2ccc(C(C)(C)C)n2)c2[nH]cc(C(=O)C(=O)N3CCN(C(=O)c4ccccc4)[C@H](C)C3)c12 [Example 243, (R)-1-benzoyl-2-methyl-4-[(4-methoxy-7-(3-t-butyl-pyrazol-1-yl)-6-azaindol-3-yl)-oxoacetyl]piperazine]",< 1000
2,"COc1cnc(-n2ccc(C(F)(F)F)n2)c2[nH]cc(C(=O)C(=O)N3CCN(C(=O)c4ccccc4)[C@H](C)C3)c12 [Example 244, (R)-1-benzoyl-2-methyl-4-[(4-methoxy-7-(3-trifluoromethyl-pyrazol-1-yl)-6-azaindol-3-yl)-oxoacetyl]piperazine]",< 1000
3,"COc1cnc(-n2nnc3ccccc32)c2[nH]cc(C(=O)C(=O)N3CCN(C(=O)c4ccccc4)[C@H](C)C3)c12 [Example 246, (R)-1-benzoyl-2-methyl-4-[(4-methoxy-7-(1,2,3-benzotriazol-1-yl)-6-azaindol-3-yl)-oxoacetyl]piperazine]",< 1000
4,"COc1cnc(-n2ccc(N)n2)c2[nH]cc(C(=O)C(=O)N3CCN(C(=O)c4ccccc4)[C@H](C)C3)c12 [Example 253, (R)-1-benzoyl-2-methyl-4-[(4-methoxy-7-(3-amino-pyrazol-1-yl)-6-azaindol-3-yl)-oxoacetyl]piperazine]",< 1000
5,"COc1cnc(-n2nccc2N)c2[nH]cc(C(=O)C(=O)N3CCN(C(=O)c4ccccc4)[C@H](C)C3)c12 [Example 254, (R)-1-benzoyl-2-methyl-4-[(4-methoxy-7-(5-amino-pyrazol-1-yl)-6-azaindol-3-yl)-oxoacetyl]piperazine]",< 1000
6,"COc1cnc(-n2ccc(O)n2)c2[nH]cc(C(=O)C(=O)N3CCN(C(=O)c4ccccc4)[C@H](C)C3)c12 [Example 257, (R)-1-benzoyl-2-methyl-4-[(4-methoxy-7-(3-hydroxylpyrazol-1-yl)-6-azaindol-3-yl)-oxoacetyl]piperazine]",< 1000
7,"COc1cnc(-n2ccc(C(C)=O)n2)c2[nH]cc(C(=O)C(=O)N3CCN(C(=O)c4ccccc4)[C@H](C)C3)c12 [Example 259, (R)-1-benzoyl-2-methyl-4-[(4-methoxy-7-(3-methylcarbonyl-pyrazol-1-yl)-6-azaindol-3-yl)-oxoacetyl]piperazine]",< 1000
8,"COc1cnc(-n2ccc(-c3ccccc3)n2)c2[nH]cc(C(=O)C(=O)N3CCN(C(=O)c4ccccc4)[C@H](C)C3)c12 [Example 260, (R)-1-benzoyl-2-methyl-4-[(4-methoxy-7-(3-phenyl-pyrazol-1-yl)-6-azaindol-3-yl)-oxoacetyl]piperazine]",< 1000
9,"COc1cnc(-n2cnc(NCc3cccnc3)n2)c2[nH]cc(C(=O)C(=O)N3CCN(C(=O)c4ccccc4)[C@H](C)C3)c12 [Example 261, (R)-1-benzoyl-2-methyl-4-[(4-methoxy-7-(3-(3-pyridinemethylamino)-1,2,4-triazol-1-yl)-6-azaindol-3-yl)-oxoacetyl]piperazine]",< 1000
10,"COc1cnc(-n2ccc(NC(C)=O)n2)c2[nH]cc(C(=O)C(=O)N3CCN(C(=O)c4ccccc4)[C@H](C)C3)c12 [Example 262, (R)-1-benzoyl-2-methyl-4-[(4-methoxy-7-(3-acetylamino-pyrazol-1-yl)-6-azaindol-3-yl)-oxoacetyl]piperazine]",< 1000
11,"COc1cnc(-n2ccc(-c3ccc(C)nc3)n2)c2[nH]cc(C(=O)C(=O)N3CCN(C(=O)c4ccccc4)[C@H](C)C3)c12 [Example 263, (R)-1-benzoyl-2-methyl-4-[(4-methoxy-7-(3-(2-methylpyridin-5-yl)pyrazol-1-yl)-6-azaindol-3-yl)-oxoacetyl]piperazine]",< 1000
12,COc1cnc(-n2ccc(C(C)n3cncn3)n2)c2[nH]cc(C(=O)C(=O)N3CCN(C(=O)c4ccccc4)[C@H](C)C3)c12 (stereo partly shown) [Example 265],< 1000
13,COc1cnc(-c2cnc(N)cn2)c2[nH]cc(C(=O)C(=O)N3CCN(C(=O)c4ccccn4)[C@H](C)C3)c12 [Example 267],< 1000
14,COc1cnc(-c2ccc(S(C)(=O)=O)cc2)c2[nH]cc(C(=O)C(=O)N3CCN(C(=O)c4ccccn4)[C@H](C)C3)c12 [Example 268],< 1000
15,COc1cnc(-c2cnccn2)c2[nH]cc(C(=O)C(=O)N3CCN(C(=O)c4cccnc4)[C@H](C)C3)c12 [Example 270],< 1000
16,COc1cnc(-c2cnc(O)cn2)c2[nH]cc(C(=O)C(=O)N3CCN(C(=O)c4ccccc4)[C@H](C)C3)c12 [Example 271],< 1000
17,COc1cnc(-c2cnc(O)cn2)c2[nH]cc(C(=O)C(=O)N3CCN(C(=O)c4ccccn4)[C@H](C)C3)c12 [Example 272],< 1000
